In patent US11000033B2, “Ketone or oxime compound, and herbicide” (NISSAN CHEMICAL CORPORATION, priority 2014, dated 2021):

How the values were obtained:
Format in all cases: in vivo
Chenopodium album = assay: Test Example 5: herbicidal effect by foliage application, plastic box (symbol O); details: 320 g/ha, 3 weeks after application
Summary of the method: (§1)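 Visual herbicidal score, taken three weeks post-application, of seedlings sprayed on the foliage with water-diluted emulsion at a predetermined amount; plants were 14 days old, greenhouse-raised at 25° C. to 30° C.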

Galium spurium = assay: Test Example 5: herbicidal effect by foliage application, plastic box (symbol Q); details: 320 g/ha, 3 weeks after application
Summary of the method: as §1

Amaranthus retroflexus = assay: Test Example 5: herbicidal effect by foliage application, plastic box (symbol N); details: 320 g/ha, 3 weeks after application
Summary of the method: as §1

Lolium multiflorum Lam. = assay: Test Example 5: herbicidal effect by foliage application, plastic box (symbol K); details: 320 g/ha, 3 weeks after application
Summary of the method: as §1

[1] = system: Echinochloa crus-galli var. crus-galli; assay: Test Example 5: herbicidal effect by foliage application, plastic box (symbol H); details: 320 g/ha, 3 weeks after application
Summary of the method: as §1

Setaria viridis = assay: Test Example 5: herbicidal effect by foliage application, plastic box (symbol G); details: 320 g/ha, 3 weeks after application
Summary of the method: as §1

Monochoria vaginalis [2] = assay: Test Example 1: herbicidal activity, application before weed generation in submerged conditions (symbol C); details: application herbicide amount 320 g/ha
Summary of the method: (§2)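 Ratings (5: ≥90%, near complete withering; 4: 70–<90%; 3: 40–<70%; 2: 20–<40%; 1: 5–<20%; 0: ≤5%) were assigned 3 weeks after the diluted emulsion was applied to the water surface of freshly sown, submerged pots.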

Cyperus difformis = assay: Test Example 3: herbicidal effect by foliage application, Wagner pot (symbol E); details: application herbicide amount 320 g/ha
Summary of the method: (§3)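 Post-emergence, paddy-type test: seedlings 14 d old in shallow-flooded (0.1–0.5 cm) alluvial soil, 25–30 °C greenhouse. Emulsion diluted to target rate, sprayed on leaves. Read-out: visual effect on each species at 3 weeks, per set criteria.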

Veronica persica = assay: Test Example 5: herbicidal effect by foliage application, plastic box (symbol R); details: 320 g/ha, 3 weeks after application
Summary of the method: as §1

beet = assay: Test Example 5: effect on crop by foliage application, plastic box (symbol f); details: 320 g/ha, 3 weeks after application
Summary of the method: (§4)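 Box culture: sterile diluvial soil, seeds spot-sown, ~1.5 cm cover, raised under glass at 25–30° C.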

rice plant = assay: Test Example 5: effect on crop by foliage application, plastic box (symbol b); details: 320 g/ha, 3 weeks after application
Summary of the method: as §4

Scirpus juncoides [3] = assay: Test Example 1: herbicidal activity, application before weed generation in submerged conditions (symbol B); details: application herbicide amount 320 g/ha
Summary of the method: as §2

Avena fatua = assay: Test Example 5: herbicidal effect by foliage application, plastic box (symbol I); details: 320 g/ha, 3 weeks after application
Summary of the method: as §1

Alopecurus myosuroides = assay: Test Example 5: herbicidal effect by foliage application, plastic box (symbol J); details: 320 g/ha, 3 weeks after application
Summary of the method: as §1

Monochoria vaginalis [4] = assay: Test Example 2: herbicidal activity, application during weed generation in submerged conditions (symbol C); details: Table 23; application herbicide amount 320 g/ha; grade 0-5 by criteria of Test Example 1
Summary of the method: (§5)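 Steps: fill pots with alluvial soil; add water to 4 cm depth; co-sow the three weeds; grow at 25° C. to 30° C. under glass; at 1–2 leaves, dose the floodwater with diluted emulsion; rate damage visually after 3 weeks.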

rapeseed = assay: Test Example 5: effect on crop by foliage application, plastic box (symbol g); details: 320 g/ha, 3 weeks after application
Summary of the method: as §4

Leptochloa chinensis = assay: Test Example 3: herbicidal effect by foliage application, Wagner pot (symbol D); details: application herbicide amount 320 g/ha
Summary of the method: as §3

Abutilon theophrasti = assay: Test Example 5: herbicidal effect by foliage application, plastic box (symbol M); details: 320 g/ha, 3 weeks after application
Summary of the method: as §1

Apera spica-venti = assay: Test Example 5: herbicidal effect by foliage application, plastic box (symbol L); details: 320 g/ha, 3 weeks after application
Summary of the method: as §1

[5] = system: Echinochloa oryzacola Vasing.; assay: Test Example 1: herbicidal activity, application before weed generation in submerged conditions (symbol A); details: application herbicide amount 320 g/ha
Summary of the method: as §2

transplanted rice plant = assay: Test Example 1: effect on crop, application before weed generation in submerged conditions (symbol a); details: application herbicide amount 320 g/ha
Summary of the method: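 Alluvial soil pots flooded to 4 cm water, sown with Echinochloa oryzacola, Scirpus juncoides and Monochoria vaginalis, then transplanted with 2.5 leaf stage rice seedlings; pre-emergence application. Greenhouse 25° C. to 30° C.; scored 0–5 by herbicidal ratio 3 weeks after application.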

[6] = system: directly sowed rice plant; assay: Test Example 3: effect on crop by foliage application, Wagner pot (symbol b); details: application herbicide amount 320 g/ha
Summary of the method: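 Wagner pot (1/10000 are), alluvial soil, submerged 0.1–0.5 cm; sown E. crus-galli var. crus-galli, L. chinensis, C. difformis, rice; greenhouse 25–30 °C.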

Stellaria media = assay: Test Example 5: herbicidal effect by foliage application, plastic box (symbol P); details: 320 g/ha, 3 weeks after application
Summary of the method: as §1

soybean = assay: Test Example 5: effect on crop by foliage application, plastic box (symbol d); details: 320 g/ha, 3 weeks after application
Summary of the method: as §4

corn = assay: Test Example 5: effect on crop by foliage application, plastic box (symbol c); details: 320 g/ha, 3 weeks after application
Summary of the method: as §4

[7] = system: Echinochloa crus-galli var. crus-galli; assay: Test Example 3: herbicidal effect by foliage application, Wagner pot (symbol H); details: application herbicide amount 320 g/ha
Summary of the method: as §3

Digitaria ciliaris = assay: Test Example 5: herbicidal effect by foliage application, plastic box (symbol F); details: 320 g/ha, 3 weeks after application
Summary of the method: as §1

[8] = system: Echinochloa oryzacola Vasing.; assay: Test Example 2: herbicidal activity, application during weed generation in submerged conditions (symbol A); details: Table 23; application herbicide amount 320 g/ha; grade 0-5 by criteria of Test Example 1
Summary of the method: as §5

wheat = assay: Test Example 5: effect on crop by foliage application, plastic box (symbol e); details: 320 g/ha, 3 weeks after application
Summary of the method: as §4

Scirpus juncoides [9] = assay: Test Example 2: herbicidal activity, application during weed generation in submerged conditions (symbol B); details: Table 23; application herbicide amount 320 g/ha; grade 0-5 by criteria of Test Example 1
Summary of the method: as §5

In the case of `CON=C(C)CC1CC(O)=C(c2c(C)cc(-c3ccc(SC)cc3)cc2C)C1=O` (mixture of isomers) [6-030], the “O: Chenopodium album, herbicidal effect grade” value (Chenopodium album) is reported as 0 (Herbicidal ratio of 5% or lower (almost no effect)), the “Q: Galium spurium, herbicidal effect grade” value (Galium spurium) is reported as 0 (Herbicidal ratio of 5% or lower (almost no effect)) and the “N: Amaranthus retroflexus, herbicidal effect grade” value (Amaranthus retroflexus) is reported as 0 (Herbicidal ratio of 5% or lower (almost no effect)). The “K: Lolium multiflorum Lam., herbicidal effect grade” value (Lolium multiflorum Lam.) was 1 (Herbicidal ratio of 5% or higher and lower than 20%), the “H: Echinochloa crus-galli var. crus-galli, herbicidal effect grade” value [1] was 1 (Herbicidal ratio of 5% or higher and lower than 20%) and the “G: Setaria viridis, herbicidal effect grade” value (Setaria viridis) was 4 (Herbicidal ratio of 70% or higher and lower than 90%). For the same molecule, the “Herbicidal effect grade, C: Monochoria vaginalis” value (from here on “Herbicidal effect grade, C”) (Monochoria vaginalis [2]) was 0 (Herbicidal ratio of 5% or lower (almost no effect)), the “herbicidal effect on E, grade 0-5” value (Cyperus difformis) was 0 (Herbicidal ratio of 5% or lower (almost no effect)) and the “R: Veronica persica, herbicidal effect grade” value (Veronica persica) was 0 (Herbicidal ratio of 5% or lower (almost no effect)). For the same molecule, the “f: beet, effect on crop grade” value (beet) was 0 (Herbicidal ratio of 5% or lower (almost no effect)), the “b: directly sowed rice plant, effect on crop grade” value (rice plant) was 1 (Herbicidal ratio of 5% or higher and lower than 20%) and the “Herbicidal effect grade, B: Scirpus juncoides” value (“Herbicidal effect grade, B” below) (Scirpus juncoides [3]) was 0 (Herbicidal ratio of 5% or lower (almost no effect)). The “I: Avena fatua, herbicidal effect grade” value (Avena fatua) was 0 (Herbicidal ratio of 5% or lower (almost no effect)), the “J: Alopecurus myosuroides, herbicidal effect grade” value (Alopecurus myosuroides) was 1 (Herbicidal ratio of 5% or higher and lower than 20%) and the “Herbicidal effect grade, C” value (Monochoria vaginalis [4]) was 0 (Herbicidal ratio of 5% or lower (almost no effect)). The “g: rapeseed, effect on crop grade” value (rapeseed) was 3 (Herbicidal ratio of 40% or higher and lower than 70%), the “herbicidal effect on D (Leptochloa chinensis), grade 0-5” value (Leptochloa chinensis) was 5 (Herbicidal ratio of 90% or more (almost completely withered)) and the “M: Abutilon theophrasti, herbicidal effect grade” value (Abutilon theophrasti) was 0 (Herbicidal ratio of 5% or lower (almost no effect)). For the same molecule, the “L: Apera spica-venti, herbicidal effect grade” value (Apera spica-venti) was 0 (Herbicidal ratio of 5% or lower (almost no effect)), the “Herbicidal effect grade, A: Echinochloa oryzacola Vasing.” value [5] was 3 (Herbicidal ratio of 40% or higher and lower than 70%) and the “Effect grade on crop, a: transplanted rice plant” value (transplanted rice plant) was 2 (Herbicidal ratio of 20% or higher and lower than 40%). For the same molecule, the “effect on crop b (directly sowed rice plant), grade 0-5” value [6] was 2 (Herbicidal ratio of 20% or higher and lower than 40%), the “P: Stellaria media, herbicidal effect grade” value (Stellaria media) was 0 (Herbicidal ratio of 5% or lower (almost no effect)) and the “d: soybean, effect on crop grade” value (soybean) was 0 (Herbicidal ratio of 5% or lower (almost no effect)). For the same molecule, the “c: corn, effect on crop grade” value (corn) was 0 (Herbicidal ratio of 5% or lower (almost no effect)), the “herbicidal effect on H (Echinochloa crus-galli var. crus-galli), grade 0-5” value [7] was 4 (Herbicidal ratio of 70% or higher and lower than 90%) and the “F: Digitaria ciliaris, herbicidal effect grade” value (Digitaria ciliaris) was 4 (Herbicidal ratio of 70% or higher and lower than 90%). For the same molecule, the “Herbicidal effect grade, A: Echinochloa oryzacola Vasing.” value [8] was 2 (Herbicidal ratio of 20% or higher and lower than 40%), the “e: wheat, effect on crop grade” value (wheat) was 0 (Herbicidal ratio of 5% or lower (almost no effect)) and the “Herbicidal effect grade, B” value (Scirpus juncoides [9]) was 0 (Herbicidal ratio of 5% or lower (almost no effect)).

For `CON=C(C)CC1CC(O)=C(c2c(C)cc(Oc3ccc(C(F)(F)F)cn3)cc2C)C1=O` (mixture of isomers) [6-054], the “O: Chenopodium album, herbicidal effect grade” value (Chenopodium album) was 4 (Herbicidal ratio of 70% or higher and lower than 90%), the “Q: Galium spurium, herbicidal effect grade” value (Galium spurium) was 0 (Herbicidal ratio of 5% or lower (almost no effect)) and the “N: Amaranthus retroflexus, herbicidal effect grade” value (Amaranthus retroflexus) was 0 (Herbicidal ratio of 5% or lower (almost no effect)). The “K: Lolium multiflorum Lam., herbicidal effect grade” value (Lolium multiflorum Lam.) was 4 (Herbicidal ratio of 70% or higher and lower than 90%), the “H: Echinochloa crus-galli var. crus-galli, herbicidal effect grade” value [1] was 5 (Herbicidal ratio of 90% or more (almost completely withered)) and the “G: Setaria viridis, herbicidal effect grade” value (Setaria viridis) was 5 (Herbicidal ratio of 90% or more (almost completely withered)). The “Herbicidal effect grade, C” value (Monochoria vaginalis [2]) was 0 (Herbicidal ratio of 5% or lower (almost no effect)), the “herbicidal effect on E, grade 0-5” value (Cyperus difformis) was 3 (Herbicidal ratio of 40% or higher and lower than 70%) and the “R: Veronica persica, herbicidal effect grade” value (Veronica persica) was 0 (Herbicidal ratio of 5% or lower (almost no effect)). The “f: beet, effect on crop grade” value (beet) was 0 (Herbicidal ratio of 5% or lower (almost no effect)), the “b: directly sowed rice plant, effect on crop grade” value (rice plant) was 3 (Herbicidal ratio of 40% or higher and lower than 70%) and the “Herbicidal effect grade, B” value (Scirpus juncoides [3]) was 0 (Herbicidal ratio of 5% or lower (almost no effect)). For the same molecule, the “I: Avena fatua, herbicidal effect grade” value (Avena fatua) was 3 (Herbicidal ratio of 40% or higher and lower than 70%), the “J: Alopecurus myosuroides, herbicidal effect grade” value (Alopecurus myosuroides) was 5 (Herbicidal ratio of 90% or more (almost completely withered)) and the “Herbicidal effect grade, C” value (Monochoria vaginalis [4]) was 0 (Herbicidal ratio of 5% or lower (almost no effect)). For the same molecule, the “g: rapeseed, effect on crop grade” value (rapeseed) was 1 (Herbicidal ratio of 5% or higher and lower than 20%), the “herbicidal effect on D (Leptochloa chinensis), grade 0-5” value (Leptochloa chinensis) was 5 (Herbicidal ratio of 90% or more (almost completely withered)) and the “M: Abutilon theophrasti, herbicidal effect grade” value (Abutilon theophrasti) was 0 (Herbicidal ratio of 5% or lower (almost no effect)). The “L: Apera spica-venti, herbicidal effect grade” value (Apera spica-venti) was 5 (Herbicidal ratio of 90% or more (almost completely withered)), the “Herbicidal effect grade, A: Echinochloa oryzacola Vasing.” value [5] was 1 (Herbicidal ratio of 5% or higher and lower than 20%) and the “Effect grade on crop, a: transplanted rice plant” value (transplanted rice plant) was 2 (Herbicidal ratio of 20% or higher and lower than 40%). The “effect on crop b (directly sowed rice plant), grade 0-5” value [6] was 5 (Herbicidal ratio of 90% or more (almost completely withered)), the “P: Stellaria media, herbicidal effect grade” value (Stellaria media) was 0 (Herbicidal ratio of 5% or lower (almost no effect)) and the “d: soybean, effect on crop grade” value (soybean) was 0 (Herbicidal ratio of 5% or lower (almost no effect)). For the same molecule, the “c: corn, effect on crop grade” value (corn) was 4 (Herbicidal ratio of 70% or higher and lower than 90%), the “herbicidal effect on H (Echinochloa crus-galli var. crus-galli), grade 0-5” value [7] was 5 (Herbicidal ratio of 90% or more (almost completely withered)) and the “F: Digitaria ciliaris, herbicidal effect grade” value (Digitaria ciliaris) was 4 (Herbicidal ratio of 70% or higher and lower than 90%). For the same molecule, the “Herbicidal effect grade, A: Echinochloa oryzacola Vasing.” value [8] was 2 (Herbicidal ratio of 20% or higher and lower than 40%), the “e: wheat, effect on crop grade” value (wheat) was 0 (Herbicidal ratio of 5% or lower (almost no effect)) and the “Herbicidal effect grade, B” value (Scirpus juncoides [9]) was 1 (Herbicidal ratio of 5% or higher and lower than 20%).
